# Measured values published in patent US8663668B2, “Preservative for medical devices” (Fresenius Medical Care Deutschland GmbH, priority 2004, dated 2014).
# Experiment: antimicrobial effectiveness test (USP 27), disinfectant/preservative effect
# Type: cell-based
# Details: additive alone
# Source text: Within the context of the present invention, preferably poly(hexamethylene)biguanide having a molecular weight of 2900 to 15,000 (PHMB) is used as the biguanide compound. An especially preferred disinfection solution contains PHMB in a concentration of 0.01% to 0.5% by weight, where concentrations of 0.02% to 0.06% by weight are especially advantageous. A neutral buffer containing phosphate, and preferably also containing the following substances is used as the medium: sodium citrate dihydrate, sodium acetate trihydrate, sodium chloride, sodium monohydrogen phosphate, potassium dihydrogen phosphate. Such a solution effectively disinfects and preserves the aforementioned medical devices and is in compliance with the requirements of the “antimicrobial effectiveness tests” described in USP 27 (United States Pharmacopoeia).
# An adsorber column of the type IMMUNOSORBA (Fresenius Adsorber Technology GmbH) is used to remove antibodies from blood plasma and binds the antibodies via protein A of Staphylococcus aureus. This adsorber column is filled with a solution according to Example 1.
smiles,measurement,value
"N[C@@H](Cc1c[nH]c2ccccc12)C(=O)O [Tryptophan, tryptophan]",disinfectant effect,does not have any disinfectant effect
